Results from ChEMBL document CHEMBL3044920, “Progress in understanding molecular mechanisms and evolution of resistance to succinate dehydrogenase inhibiting (SDHI) fungicides in phytopathogenic fungi” (Crop Prot, 2010).

Key:
Alternaria alternata [1] = test: Antifungal activity against boscalid-resistant Alternaria alternata expressing AaSDHD H133R mutant assessed as inhibition of mycelial growth at 10 ppm relative to untreated control; type: functional
Alternaria alternata [2] = test: Antifungal activity against boscalid-resistant Alternaria alternata expressing AaSDHC H134R mutant assessed as inhibition of mycelial growth at 10 ppm relative to untreated control; type: functional
Alternaria alternata [3] = test: Antifungal activity against boscalid-resistant Alternaria alternata expressing AaSDHB H277Y mutant assessed as inhibition of mycelial growth at 10 ppm relative to untreated control; type: functional
Alternaria alternata [4] = test: Antifungal activity against wild type Alternaria alternata assessed as inhibition of mycelial growth at 10 ppm relative to untreated control; type: functional
Alternaria alternata [5] = test: Antifungal activity against boscalid-resistant Alternaria alternata isolate Aa122 expressing AaSDHC H134R mutant; type: functional, organism-based
Alternaria alternata [6] = test: Antifungal activity against boscalid-resistant Alternaria alternata isolate Aa111 expressing AaSDHB H277Y mutant; type: functional, organism-based
Alternaria alternata [7] = test: Antifungal activity against boscalid-resistant Alternaria alternata isolate Aa29 expressing AaSDHB H277Y mutant; type: functional, organism-based
Alternaria alternata [8] = test: Antifungal activity against wild type Alternaria alternata isolate Aa16; type: functional, organism-based
Botrytis cinerea = test: Antifungal activity against resistant Botryotinia fuckeliana isolates obtained from excessive treatment with Signum; type: functional, organism-based

Structure (SMILES) | inhibition at 10 ppm (Alternaria alternata [1]) [%] | inhibition at 10 ppm (Alternaria alternata [2]) [%] | inhibition at 10 ppm (Alternaria alternata [3]) [%] | inhibition at 10 ppm (Alternaria alternata [4]) [%] | EC50 (Alternaria alternata [5]) [ppm] | EC50 (Alternaria alternata [6]) [ppm] | EC50 (Alternaria alternata [7]) [ppm] | EC50 (Alternaria alternata [8]) [ppm] | EC50 (Botrytis cinerea) [ppm]
CC(C)CC(C)c1sccc1NC(=O)c1cn(C)nc1C(F)(F)F (racemic) [PENTHIOPYRAD] | 88.7 | 85.1 | 90.5 | 89.7 | – | – | – | – | –
O=C(Nc1ccccc1-c1ccc(Cl)cc1)c1cccnc1Cl [BOSCALID] | 47.5 | 31.9 | 30.7 | 87.2 | > 50 | > 50 | > 50 | 0.5 | > 100
O=C(NCCc1ncc(C(F)(F)F)cc1Cl)c1ccccc1C(F)(F)F [FLUOPYRAM] | 16.9 | 11.3 | 41.3 | 83 | 5 | 0.25 | 0.25 | < 0.25 | –
